Source: patent US20030027799A1, “Methods of treating cancer using a combination of drugs” (priority 2001, published 2003)

Key:
[1] = test system: various forms of cancers (e.g. solid tumours, adult leukemia and lymphomas); details: Weitman 2000, Giles 2001, Gourdeau 2001; cited from earlier work
[2] = Dose escalation study of β-L-OddC and cisplatin in cancer patients: dose limiting toxicity, maximum tolerated dose; type: in vivo; details: β-L-OddC in combination with cisplatin 50 mg/m^2, administered every four weeks
Text: The patients selected were adult patients with solid tumours that were refractory to standard therapies. […] They had adequate bone marrow, renal and hepatic function. There were 33 patients treated. Sixteen were male patients and seventeen were female. Twenty patients had colorectal cancer. Two patients had melanoma. One patient each had gastric cancer, islet cell cancer of the pancreas, non-small lung cancer (NSCLC), renal cancer, cervical cancer, breast cancer, ovarian cancer, squamous cell cancer of the pelvis, liver cancer, abdominal cancer and penile cancer. […] The terms LP and HP refer to lightly pre-treated and heavily pre-treated patient status. The term DLT refers to Dose limiting Toxicity.

## Nc1ccn([C@@H]2CO[C@H](CO)O2)c(=O)n1 [β-L-OddC, (−)-β-L-Dioxolane-Cytidine]
[1]
  activity in the treatment of various forms of cancers: potent activity
[2]
  recommended dose for heavily pre-treated patients: 4.8 mg/m^2
